Source: patent US9073862B2, “Substituted 2-oxy-quinoline-3-carboxamides as KCNQ2/3 modulators” (Grünenthal GmbH, priority 2010, dated 2015)

Molecular target: T1, KCNQ2/3 channels (Homo sapiens, UniProt O43525+O43526)
T1 construct: expressed in transfected cells; host or cells: CHO-K1
Experiment: Fluorescence assay using a voltage sensitive dye (fluorimetry)
Assay type: cell-based
Conditions: CHO-K1 cells expressing KCNQ2/3 channels; for Emax: relative to retigabine = 100%, read-out: Fluorimetry % efficacy (retigabine = 100%)
Method: Method I. Fluorescence Assay Using a Voltage Sensitive Dye (Fluorimetry)
[…] CHO-K1 cells expressing KCNQ2/3 channels are cultivated adherently at 37° C., 5% CO2 and 95% humidity in cell culture bottles (e.g. 80 cm^2 TC flasks, Nunc) with DMEM-high glucose (Sigma Aldrich, D7777) including 10% FCS (PAN Biotech, e.g. 3302-P270521) or alternatively MEM Alpha Medium (1×, liquid, Invitrogen, #22571), 10% fetal calf serum (FCS) (Invitrogen, #10270-106, heat-inactivated) and the necessary selection antibiotics.
Before being sown out for the measurements, the cells are washed with 1×DPBS buffer Ca^2+/Mg^2+-free (e.g. Invitrogen, #14190-094) and detached from the bottom of the culture vessel by using Accutase (PAA Laboratories, #L11-007) (incubation with Accutase for 15 min at 37° C.). The cell number is determined using a CASY™ cell counter (TCC, Schärfe System). Depending on the optimal density for each individual cell line, 20,000-30,000 cells/well/100 μl are seeded onto 96-well Corning™ CellBIND™ assay plates (Flat Clear Bottom Black Polystyrene Microplates, #3340). Freshly seeded cells are then left to settle for one hour at room temperature, followed by incubation for 24 hours at 37° C., 5% CO2 and 95% humidity.
The voltage-sensitive fluorescent dye from the Membrane Potential Assay Kit (Red™ Bulk format part R8123 for FLIPR, MDS Analytical Technologies™) is prepared by dissolving the contents of one vessel Membrane Potential Assay Kit Red Component A in 200 ml of extracellular buffer (ES buffer, 120 mM NaCl, 1 mM KCl, 10 mM HEPES, 2 mM CaCl2, 2 mM MgCl2, 10 mM glucose; pH 7.4). After removal of the nutrient medium, the cells are washed once with 200 μl of ES buffer, then loaded for 45 min at room temperature in 100 μl of dye solution in the dark.
Fluorescence measurements are carried out in a BMG Labtech FLUOstar™, BMG Labtech NOVOstar™ or BMG Labtech POLARstar™ instrument (525 nm excitation, 560 nm emission, Bottom Read mode). After incubation with the dye, 50 μl of the test substances in the desired concentrations, or 50 μl of ES buffer for control purposes, are applied to the wells of the assay plate and incubated for 30 min at room temperature while being shielded from light. The fluorescence intensity of the dye is then measured for 5 min and the fluorescence value F1 of each well is thus determined at a given, constant time. 15 μl of a KCl solution are then added to each well (final concentration of potassium ions 92 mM). The change in fluorescence intensity is subsequently monitored until all the relevant values have been obtained (mainly 5-30 min). At a given time post KCl application, a fluorescence value F2 is determined, in this case at the time of the fluorescence peak.
For calculation, the fluorescence intensity F2 is corrected for the fluorescence intensity F1, and the activity (ΔF/F) of the target compound on the potassium channel is determined as follows:
In order to determine whether a substance has agonistic activity,
[formula] can be related to
[formula] of control wells.
[formula] is determined by adding to the well only the buffer solution instead of the test substance, determining the value F1K of the fluorescence intensity, adding the potassium ions as described above, and measuring a value F2K of the fluorescence intensity. F2K and F1K are then calculated as follows: […]
A substance has an agonistic activity on the potassium channel if
[formula] is greater than
Independently of the comparison of
[formula] it is possible to conclude that a target compound has agonistic activity if
[formula] increases dose dependently.
Calculations of EC50 and IC50 values are carried out with the aid of ‘Prism v4.0’ software (Graph Pad Software™).

COc1nc2cc(C(F)(F)F)ccc2c(C)c1C(=O)NCCC(C)(C)C [Example 1, N-(3,3-dimethyl-butyl)-2-methoxy-4-methyl-7-(trifluoromethyl)-quinoline-3-carboxylic acid amide] showed an Emax of 57%.
Work on CCOc1nc2cc(C(F)(F)F)ccc2c(C)c1C(=O)NCc1cccs1 [Example 2, 2-ethoxy-4-methyl-N-(thiophene-2-yl-methyl)-7-(trifluoromethyl)-quinoline-3-carboxylic acid amide] yielded an EC50 of 64 nM and an Emax of 175%.
Cc1c(C(=O)NCc2cccc(F)c2)c(OCCO)nc2cc(C(F)(F)F)ccc12 [Example 9, N-[(3-fluorophenyl)-methyl]-2-(2-hydroxy-ethoxy)-4-methyl-7-(trifluoromethyl)-quinoline-3-carboxylic acid amide] gave an EC50 of 390 nM and an Emax of 119%.
Cc1c(C(=O)NCc2ccc(F)cc2)c(OC(C)C)nc2cc(C(F)(F)F)ccc12 [Example 11, N-[(4-fluorophenyl)-methyl]-2-isopropoxy-4-methyl-7-(trifluoromethyl)-quinoline-3-carboxylic acid amide] was tested, and the EC50 was 52 nM and the Emax was 164%.
Compound CCOc1nc2cc(C(F)(F)F)ccc2c(OC)c1C(=O)NCc1ccc(F)cc1 [Example 14, 2-ethoxy-N-[(4-fluorophenyl)-methyl]-4-methoxy-7-(trifluoromethyl)-quinoline-3-carboxylic acid amide] has an EC50 of 75 nM and an Emax of 155%.
CCOc1nc2cc(F)c(F)cc2c(OC)c1C(=O)NCc1cccc(F)c1 [Example 15, 2-ethoxy-6,7-difluoro-N-[(3-fluorophenyl)-methyl]-4-methoxy-quinoline-3-carboxylic acid amide] gave an EC50 of 106 nM and an Emax of 181%.
Compound COc1nc2cc(F)c(F)cc2c(OC)c1C(=O)NCc1cccc(F)c1 [Example 17, 6,7-difluoro-N-[(3-fluorophenyl)-methyl]-2,4-dimethoxy-quinoline-3-carboxylic acid amide] has an EC50 of 218 nM and an Emax of 147%.
Compound COc1nc2cc(F)ccc2c(C)c1C(=O)NCc1cccc(F)c1 [Example 18, 7-fluoro-N-[(3-fluorophenyl)-methyl]-2-methoxy-4-methyl-quinoline-3-carboxylic acid amide] has an EC50 of 340 nM and an Emax of 62%.
Work on COc1nc2cc(C(F)(F)F)ccc2c(C)c1C(=O)NCc1ccc(C)c(F)c1 [Example 19, N-[(3-fluoro-4-methyl-phenyl)-methyl]-2-methoxy-4-methyl-7-(trifluoromethyl)-quinoline-3-carboxylic acid amide] yielded an EC50 of 92 nM and an Emax of 99%.
Work on COc1nc2cc(C(F)(F)F)ccc2c(C)c1C(=O)NCc1cccc(C)c1 [Example 21, 2-methoxy-4-methyl-N-(m-tolyl-methyl)-7-(trifluoromethyl)-quinoline-3-carboxylic acid amide] yielded an EC50 of 67 nM and an Emax of 71%.
COc1nc2cc(C(F)(F)F)ccc2c(C)c1C(=O)NCc1ccc(F)c(C)c1 [Example 23, N-[(4-fluoro-3-methyl-phenyl)-methyl]-2-methoxy-4-methyl-7-(trifluoromethyl)-quinoline-3-carboxylic acid amide] gave an EC50 of 62 nM and an Emax of 73%.
Work on COc1nc2cc(C(F)(F)F)ccc2c(C)c1C(=O)NCc1ccc(C)cc1 [Example 25, 2-methoxy-4-methyl-N-(p-tolyl-methyl)-7-(trifluoromethyl)-quinoline-3-carboxylic acid amide] yielded an EC50 of 182 nM and an Emax of 96%.
In the case of CCOc1nc2cc(C(F)(F)F)ccc2c(C)c1C(=O)NCc1ccc(C)cc1 [Example 26, 2-ethoxy-4-methyl-N-(p-tolyl-methyl)-7-(trifluoromethyl)-quinoline-3-carboxylic acid amide], the EC50 is reported as 131 nM and the Emax is reported as 117%.
For CCOc1nc2cc(C(F)(F)F)ccc2c(C)c1C(=O)NCCCC(C)C [Example 27, 2-ethoxy-4-methyl-N-(4-methyl-pentyl)-7-(trifluoromethyl)-quinoline-3-carboxylic acid amide], the EC50 was 84 nM and the Emax was 173%.
COc1nc2cc(C(F)(F)F)ccc2c(C)c1C(=O)NCCCC(C)C [Example 28, 2-methoxy-4-methyl-N-(4-methyl-pentyl)-7-(trifluoromethyl)-quinoline-3-carboxylic acid amide] showed an EC50 of 81 nM and an Emax of 184%.
CCOc1nc2cc(C(F)(F)F)ccc2c(C)c1C(=O)NCCCC(C)(C)C [Example 30, N-(4,4-dimethyl-pentyl)-2-ethoxy-4-methyl-7-(trifluoromethyl)-quinoline-3-carboxylic acid amide] was tested, and the EC50 was 50 nM and the Emax was 214%.
CCOc1nc2cc(C#N)ccc2c(C)c1C(=O)NCc1cccc(F)c1 [Example 36, 7-cyano-2-ethoxy-N-[(3-fluorophenyl)-methyl]-4-methyl-quinoline-3-carboxylic acid amide] was tested, and the EC50 was 56 nM and the Emax was 105%.
COc1nc2cc(C#N)ccc2c(C)c1C(=O)NCc1cccc(F)c1 [Example 37, 7-cyano-N-[(3-fluorophenyl)-methyl]-2-methoxy-4-methyl-quinoline-3-carboxylic acid amide] was tested, and the EC50 was 261 nM and the Emax was 85%.
For COc1nc2cc(C#N)ccc2c(C)c1C(=O)NCc1ccc(F)cc1 [Example 38, 7-cyano-N-[(4-fluorophenyl)-methyl]-2-methoxy-4-methyl-quinoline-3-carboxylic acid amide], the EC50 was 143 nM and the Emax was 74%.
Work on COc1nc2cc(C(F)(F)F)ccc2c(C)c1C(=O)NCc1cccc(F)c1OC [Example 39, N-[(3-fluoro-2-methoxy-phenyl)-methyl]-2-methoxy-4-methyl-7-(trifluoromethyl)-quinoline-3-carboxylic acid amide] yielded an Emax of 10%.
Work on COc1cc(F)cc(CNC(=O)c2c(OC)nc3cc(C(F)(F)F)ccc3c2C)c1 [Example 40, N-[(3-fluoro-5-methoxy-phenyl)-methyl]-2-methoxy-4-methyl-7-(trifluoromethyl)-quinoline-3-carboxylic acid amide] yielded an Emax of 15%.
Work on COc1ccc(F)cc1CNC(=O)c1c(OC)nc2cc(C(F)(F)F)ccc2c1C [Example 41, N-[(5-fluoro-2-methoxy-phenyl)-methyl]-2-methoxy-4-methyl-7-(trifluoromethyl)-quinoline-3-carboxylic acid amide] yielded an EC50 of 1540 nM and an Emax of 140%.
With COc1nc2cc(C(F)(F)F)ccc2c(C)c1C(=O)NCc1cccc(F)c1O [Example 42, N-[(3-fluoro-2-hydroxy-phenyl)-methyl]-2-methoxy-4-methyl-7-(trifluoromethyl)-quinoline-3-carboxylic acid amide] the EC50 was 123 nM and the Emax was 137%.
COc1nc2cc(C(F)(F)F)ccc2c(C)c1C(=O)NCc1cc(O)cc(F)c1 [Example 43, N-[(3-fluoro-5-hydroxy-phenyl)-methyl]-2-methoxy-4-methyl-7-(trifluoromethyl)-quinoline-3-carboxylic acid amide] showed an Emax of 9%.
For COc1nc2cc(C(F)(F)F)ccc2c(C)c1C(=O)NCc1cc(F)ccc1O [Example 44, N-[(5-fluoro-2-hydroxy-phenyl)-methyl]-2-methoxy-4-methyl-7-(trifluoromethyl)-quinoline-3-carboxylic acid amide], the EC50 was 79 nM and the Emax was 173%.
COc1nc2cc(C(F)(F)F)ccc2c(C)c1C(=O)NCc1ccc(O)c(F)c1 [Example 45, N-[(3-fluoro-4-hydroxy-phenyl)-methyl]-2-methoxy-4-methyl-7-(trifluoromethyl)-quinoline-3-carboxylic acid amide] gave an EC50 of 2060 nM and an Emax of 87%.
